According to patent publication EP4631938A1, “NITROGEN-CONTAINING HETEROCYCLE WITH SEROTONIN RECEPTOR-BINDING ACTIVITY AND CARBOCYCLIC DERIVATIVE” (Shionogi & Co., Ltd, priority 2022, dated 2024):

What was measured:
[1] = target: T1, human ether-a-go-go related gene (hERG) channel (Homo sapiens, UniProt Q12809); experiment: Test Example 3-2: hERG test (FluxORII thallium flux, FLIPR, 4000 cells/well); assay type: cell-based; conditions: CHO cells expressing hERG channel, compound reacted for 10 minutes, 100% inhibition = E-4031 10.3 µmol/L
T1 construct: expressed in transfected cells; host or cells: CHO cells
T1 sequence (Q12809 whole entry): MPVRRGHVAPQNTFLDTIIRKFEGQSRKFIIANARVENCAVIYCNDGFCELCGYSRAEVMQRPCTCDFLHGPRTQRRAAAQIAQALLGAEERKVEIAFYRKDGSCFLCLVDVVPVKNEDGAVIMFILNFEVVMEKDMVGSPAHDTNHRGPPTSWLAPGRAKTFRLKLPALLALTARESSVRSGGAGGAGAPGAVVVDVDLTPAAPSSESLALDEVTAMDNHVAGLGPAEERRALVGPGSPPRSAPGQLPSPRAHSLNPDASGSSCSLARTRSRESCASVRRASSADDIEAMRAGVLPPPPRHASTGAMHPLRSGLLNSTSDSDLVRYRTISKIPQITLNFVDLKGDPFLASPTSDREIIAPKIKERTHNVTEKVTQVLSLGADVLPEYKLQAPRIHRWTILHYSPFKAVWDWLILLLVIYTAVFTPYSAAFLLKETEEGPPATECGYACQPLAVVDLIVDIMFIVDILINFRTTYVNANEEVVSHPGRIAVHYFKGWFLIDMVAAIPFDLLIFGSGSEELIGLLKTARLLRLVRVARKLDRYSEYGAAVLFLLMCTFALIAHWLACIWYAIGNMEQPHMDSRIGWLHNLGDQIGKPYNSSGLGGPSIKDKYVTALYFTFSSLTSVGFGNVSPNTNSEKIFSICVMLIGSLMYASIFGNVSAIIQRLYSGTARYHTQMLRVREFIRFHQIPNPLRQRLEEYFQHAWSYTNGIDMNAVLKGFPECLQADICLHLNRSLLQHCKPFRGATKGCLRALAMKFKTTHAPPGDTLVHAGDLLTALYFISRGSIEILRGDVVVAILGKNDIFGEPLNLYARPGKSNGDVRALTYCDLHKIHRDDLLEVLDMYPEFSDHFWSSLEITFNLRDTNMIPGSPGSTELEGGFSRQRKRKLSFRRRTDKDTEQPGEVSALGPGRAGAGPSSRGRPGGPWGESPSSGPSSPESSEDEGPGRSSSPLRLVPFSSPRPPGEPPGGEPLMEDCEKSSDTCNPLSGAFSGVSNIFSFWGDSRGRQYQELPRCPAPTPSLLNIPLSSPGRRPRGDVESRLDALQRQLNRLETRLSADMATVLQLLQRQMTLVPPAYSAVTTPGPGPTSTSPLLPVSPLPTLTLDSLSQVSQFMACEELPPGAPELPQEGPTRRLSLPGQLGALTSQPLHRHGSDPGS
Description: For the purpose of evaluating risk of an electrocardiogram QT interval prolongation of the compound of the present invention, effects of the compound are studied by evaluating the activity of potassium channel using CHO cells expressing human ether-a-go-go related gene (hERG) channel.
Evaluation is performed using a FluxORII Green Potassium Ion Channel Assay kit (Invitrogen: Molecular Probes).
Cells (4000 cells/well/40 µL) are seeded in a 384 assay plate, and are incubated overnight (37°C, 5% CO2). After replacing the medium with a Wash buffer (lxHBSS, 20 mM HEPES) with a microplate washer, a fluorescent indicator is added to the medium and allowed to incubate (37°C, 5% CO2) for 1 hour for incorporation of the fluorescent indicator into cells.
A cell plate is placed on a cell-based kinetic assay system FLIPR (Molecular Devices, LLC.), and the compound is added to the cells so as to have a desired concentration and reacted for 10 minutes. When a mixed solution of potassium and thallium as a stimulator is added thereto, the potassium channel is opened, and thallium that flowed into the cells binds to the fluorescent indicator, so that the intracellular fluorescence signal increases, and the potassium channel current is detected as a fluorescence signal. […] Then, the inhibition rate is calculated from the signal intensity at each concentration. IC50 is calculated from the inhibition rate at each concentration.

[2] = target: T2, human recombinant 5-HT2C receptor (Homo sapiens, UniProt P28335); experiment: Test Example 2-2: 5-HT2C receptor binding inhibition test ([3H]-Mesulergine; non-specific ligand Ketanserin); conditions: non-specific binding with 500 µmol/L Ketanserin, 37°C, 2 hours
T2 construct: expressed in transfected cells; host or cells: Jump-In HEK cells (membrane preparation)
T2 sequence (P28335 33-458): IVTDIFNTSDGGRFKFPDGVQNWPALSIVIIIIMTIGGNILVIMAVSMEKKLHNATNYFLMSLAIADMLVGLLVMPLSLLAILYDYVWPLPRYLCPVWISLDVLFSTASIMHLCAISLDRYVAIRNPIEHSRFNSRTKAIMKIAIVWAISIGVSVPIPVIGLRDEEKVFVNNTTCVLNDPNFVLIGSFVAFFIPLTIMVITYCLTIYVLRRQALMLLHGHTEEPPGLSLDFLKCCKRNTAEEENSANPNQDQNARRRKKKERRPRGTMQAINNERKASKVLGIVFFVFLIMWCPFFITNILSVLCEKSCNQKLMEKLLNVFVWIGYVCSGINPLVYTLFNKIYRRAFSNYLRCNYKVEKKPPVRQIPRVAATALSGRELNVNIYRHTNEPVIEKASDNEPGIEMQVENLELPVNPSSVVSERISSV
Procedure, shortened: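 Membranes expressing the receptor were incubated with compound and [3H]-Mesulergine for 2 h at 37 °C, then filtered and counted by scintillation. Non-specific binding was defined with 500 µmol/L Ketanserin. Percent inhibition versus vehicle gave dose-response curves, from which Ki was derived using a Kd from Scatchard saturation analysis.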

| SMILES | IC50 [1] [nM] | Ki [2] [nM] |
| --- | --- | --- |
| COCc1nc(C)c(-c2cc(Nc3ncc(OC(F)(F)F)cc3Cl)ncc2OCCO)c(C)n1 [Compound I-200] | > 52000 |  |
| Cn1ncc(F)c1-c1cc(Nc2ncc(C(F)(F)F)cc2F)cnc1OCCO [Compound I-127] | > 52000 | 3.47 |
| Cn1ncc(Br)c1-c1cc(Nc2ncc(C(F)(F)F)cc2F)ccc1OCCO [Compound I-006] | > 52000 | 0.271 |
| Cc1cnn(C)c1-c1cc(Nc2ncc(C(F)(F)F)cc2F)ccc1OCCO [Compound I-008] |  | 0.822 |
